Measured values reported in patent US20230226081A1, “PHARMACEUTICAL FORMULATIONS OF ABIRATERONE ACETATE AND NIRAPARIB” (Janssen Pharmaceutica NV, priority 2020, published 2023).

Test: Particle size of the drug substances
Assay type: physicochemical

SMILES	d50 particle size of drug substance
CC(=O)O[C@H]1CC[C@@]2(C)C(=CC[C@@H]3[C@@H]2CC[C@]2(C)C(c4cccnc4)=CC[C@@H]32)C1 [Abiraterone acetate]	4-5 μm
Cc1ccc(S(=O)(=O)O)cc1.NC(=O)c1cccc2cn(-c3ccc([C@@H]4CCCNC4)cc3)nc12 [niraparib tosylate monohydrate, 2-[4-[(3S)-piperidin-3-yl]phenyl]-2H-indazole-7-carboxamide tosylate monohydrate]	around 50 μm
